According to patent US11939612B2, “Process for preparing sphingolipids” (Evonik Operations GmbH, priority 2018, dated 2024):

What was measured:
[1] = Hair breakage measurement (Cyclic Tester), repair after acidic straightening; settings: acid-straightened ethnic hair, test conditioner, 5 treatments, FIG. 3
Experimental: Ethnic hair was acid-straightened and aftertreated with a conditioner that contained one of the claimed compositions with elevated triglyceride content, consisting of: 10% olive oil-based ceramide (Example 2). For comparison, the process was conducted with a corresponding amount of pure ceramide NG or pure olive oil.
The repair effect and the boosting of the CMC complex by means of Hair fatigue alpha were measured.
Ethnic hair was chemically straightened. For this purpose, an acidic standard formulation having a pH of about 1-2 was used in combination with the use of a straightening iron. Subsequently, the hair was treated as follows: • 1. Washing with a shampoo consisting of sodium lauryl ether sulfate and cocamidopropylbetaine. • 2. Application of the test conditioner; the contact time was 5 min. Subsequently, the hair tresses were rinsed under flowing tap water at a temperature of 37° C. for 1 min. • 3. Drying of the hair tresses with a hairdryer for 3 minutes.
These three treatment steps were conducted a total of 5×. […]
For quantification of the repair effect, a hair breakage measurement was conducted (Cyclic Tester, Diastron Limited, UK). […] The number of extension cycles survived is recorded and serves to calculate the probability of survival. […]

[2] = Solubility temperature and crystal-free incorporation into cosmetic oils; assay type: physicochemical; settings: for Appearance at RT: after cooling
Experimental: For this purpose, the solubility temperatures of the sphingolipids were ascertained: A final concentration of 0.1% ceramide in cosmetic oil was chosen. The ceramide compositions were heated and stirred gradually in the cosmetic oils in a beaker on a hotplate. The solubility temperature was attained as soon as the solution was clear. Subsequently, the mixture was stirred at the solubility temperature ascertained for 1 hour. After it had cooled down to room temperature, the formulation was examined.

[3] = 0.1% ceramide in Mineral Oil (non-polar)
[4] = 0.1% ceramide in Octyldodecanol (polar)
[5] = 0.1% ceramide in TEGOSOFT APM (polar)
[6] = 0.1% ceramide in TEGOSOFT CT (polar-medium polar)
[7] = 0.1% ceramide in TEGOSOFT M (medium polar)
[8] = 0.1% ceramide in TEGOSOFT OS (non-polar)

Row | Substance | repair effect (probability of survival in the hair breakage test) [1] | Solubility temperature [2, 3] [°C] | Appearance at RT [2, 3] | Solubility temperature [2, 4] [°C] | Appearance at RT [2, 4] | Solubility temperature [2, 5] [°C] | Appearance at RT [2, 5] | Solubility temperature [2, 6] [°C] | Appearance at RT [2, 6] | Solubility temperature [2, 7] [°C] | Appearance at RT [2, 7] | Solubility temperature [2, 8] [°C] | Appearance at RT [2, 8]
1 | ceramide NG | not able to achieve any repair effect | – | – | – | – | – | – | – | – | – | – | – | –
2 | ceramide NP [Pure ceramide NP] | – | 110 | crystals | 70 | crystals | 65 | crystals | 95 | crystals | 90 | crystals | 100 | crystals
